# Counter-ions that a name gives are not always drawn.
# What was measured:
# enolase (AbEnolase) = molecular target: T1, enolase (AbEnolase) (Acinetobacter baumannii, UniProt A3M5Y1); assay: isothermal titration calorimetry ([…] °C, […] protein, […] ENOblock, single-site model, n = […]); assay type: binding
# T1 construct: gene eno; wild-type enolase gene in pET-30a(+) with an N-terminal His6 tag, purified recombinant
# E. coli ATCC 25922 = tested on: T2, E. coli ATCC 25922; assay: microbe, parasite or virus in culture; set-up: Bacterial growth inhibition, OD600, dose-response in 384-well plates, AC50; conditions: Escherichia coli, ATCC25922, 24 h
# T2 construct: ATCC 25922
# Procedure: (§1) EU-OPENSCREEN provided a subset of 2,464 bioactive compounds from the ECBL pilot library (EU-OPENSCREEN: European Chemical Biology Library - Pilot Library) as 10 mM stock solutions in 100% DMSO. The library was screened in duplicate at a final concentration of 100 μM per well (1% DMSO). The antibacterial single-concentration HTS and dose–response susceptibility assays were conducted in 384-well plates, with bacterial cell density measured by optical density at 600 nm (OD600). Compounds were distributed in duplicate on separate 384-well microtiter plates using an Echo 550® acoustic [compound left out] handler (Beckman Coulter™, Indianapolis, IN) and inoculated with bacteria to a final concentration of 10^6 CFU/mL, with a total assay volume of 25.25 μL. Plates were incubated with shaking for 24 h at 37 °C. Bacterial growth was measured by reading the OD600 using an EnVision™ microplate reader (Revvity, Waltham, MA). The activity of the compounds was expressed as the percentage of bacterial growth inhibition, and it was calculated using the following normalization: %Inhibition=100×1−(TfSample−TOSample)−(TfBlank−TOBlank)/(TfGrowth−TOGrowth)−(TfBlank−TOBlank) Where, T0 Sample is the absorbance of the strain growth in the presence of compound measured at time zero, Tf Sample is the absorbance of the strain growth in the presence of compound measured at final time, T0 Growth is the absorbance of the strain growth in the absence of compound measured at time zero, Tf Growth is the absorbance of the strain growth in the absence of compound measured at final time, T0 Blank is the absorbance of the broth medium (blank) measured at time zero, Tf Blank: the absorbance of the broth medium (blank) measured at final time; T0 is Time at 0 h and Tf is Time at 24 h. We developed and validated a high-throughput screen assay using 2464 bioactive compounds from the EU-OPENSCREEN pilot library, dispensed in 384-well plates at 100 μM final concentration, and the A. baumannii Ab ATCC 17978 and E. coli ATCC 25922 strains, as well as their respective MDR strains (Ab186 and MCR1^+) (Fig. 1A). We identified 33 compounds ([…] of the total compounds) with inhibitory activity of ≥70% against at least one or both MDR strains of Ab186 and E. coli MCR1^+. […] This compound was active against the Ab ATCC 17978 and E. coli ATCC 25922 strains, with AC50 values of 23.57 μM and 46.86 μM, respectively (Fig. 1C).
# [1] = tested on: T3, A. baumannii Ab ATCC 17978; assay: microbe, parasite or virus in culture; set-up: species or system A. baumannii ATCC 17978; Bacterial growth inhibition, OD600, dose-response in 384-well plates, AC50; conditions: Acinetobacter baumannii, ATCC17978, 24 h
# T3 construct: ATCC 17978
# Procedure: as §1
# T1 sequence (A3M5Y1 whole entry): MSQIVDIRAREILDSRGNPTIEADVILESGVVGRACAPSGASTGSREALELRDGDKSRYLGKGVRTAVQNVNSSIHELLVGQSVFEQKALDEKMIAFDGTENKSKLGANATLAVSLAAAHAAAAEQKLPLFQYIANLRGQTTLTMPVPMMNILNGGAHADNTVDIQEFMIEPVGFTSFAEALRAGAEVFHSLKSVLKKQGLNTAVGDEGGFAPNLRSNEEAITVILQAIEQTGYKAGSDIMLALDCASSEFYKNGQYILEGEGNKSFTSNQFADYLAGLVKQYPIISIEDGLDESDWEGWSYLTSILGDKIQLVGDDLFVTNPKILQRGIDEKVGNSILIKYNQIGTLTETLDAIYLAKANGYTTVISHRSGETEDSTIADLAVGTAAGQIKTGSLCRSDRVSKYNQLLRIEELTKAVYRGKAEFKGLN
SMILES,Kd (enolase (AbEnolase)) [µM],AC50 (E. coli ATCC 25922) [µM],AC50 [1] [µM]
NCCOCCOCCNC(=O)Cc1ccc(Nc2nc(NCc3ccc(F)cc3)nc(NCC3CCCCC3)n2)cc1 [ENOblock],2.9 ± 0.78,–,–
"O=[N+]([O-])c1ccc(Sc2cccc[n+]2[O-])c2nonc12 [EOS100077, NSC228155]",–,19.1,32
"C[C@H]1CO[C@@H]2Cn3cc(C(=O)NCc4ccc(F)cc4F)c(=O)c(O)c3C(=O)N12 [EOS100194, CABOTEGRAVIR]",–,–,113
"COc1cc(/C=C/C(O)=C/C(=O)/C=C/c2ccc(O)cc2)ccc1O [EOS100220, DEMETHOXYCURCUMIN]",–,56.1,51
"NC(=S)N/N=C/c1ncccc1N [EOS100248, TRIAPINE]",–,101,65.7
"Cc1nc2c(=O)n(C)c(=O)nc-2n(C)n1 [EOS100293, 3-METHYLTOXOFLAVIN]",–,9.33,14.3
"Oc1c(Cl)cc(Cl)c(Cl)c1Cc1c(O)c(Cl)cc(Cl)c1Cl [EOS100333, HEXACHLOROPHENE]",–,37.3,4.77
"Oc1c(I)cc(I)c2cccnc12 [EOS100343, DIIODOHYDROXYQUINOLINE]",–,55.1,62.8
"Cc1c2ccncc2c(C)c2c1[nH]c1ccccc12 [EOS100555, ELLIPTICINE]",–,64,48.9
"Cc1ccc2c(Cl)cc(Cl)c(O)c2n1 [EOS100722, CHLORQUINALDOL]",–,20.4,42.2
"CC(C)c1cccc(=O)c(O)c1 [EOS100813, HINOKITIOL]",–,48.3,41
"CCN1CCN(C(c2ccc(C(F)(F)F)cc2)c2ccc3cccnc3c2O)CC1 (centres unmarked) [EOS100820, ML311]",–,82.9,32.7
"Oc1cccc2cccnc12 [EOS100874, OXYQUINOLINE]",–,173,71.9
"COc1ccc(Cc2cnc(N)nc2N)cc1OC [EOS100884, DIAVERIDINE]",–,1.26,–
"C=C1c2cccc(O)c2C(=O)C2=C(O)[C@]3(O)C(=O)C(C(N)=O)=C(O)[C@@H](N(C)C)[C@@H]3[C@@H](O)[C@H]12 [EOS100925, METHACYCLINE HYDROCHLORIDE]",–,95,–
"Oc1c(Cl)cc(Cl)c2cccnc12 [EOS100951, CHLOROXINE]",–,10.1,7.47

SMILES,Kd (enolase (AbEnolase)) [µM],AC50 (E. coli ATCC 25922) [µM],AC50 [1] [µM]
"NCCOCCOCCNC(=O)Cc1ccc(Nc2nc(NCc3ccc(F)cc3)nc(NCC3CCCCC3)n2)cc1 [EOS100979, AP-III-A4(ENOBLOCK)]",–,46.9,23.6
"Cn1cc(C2=C(c3cn(CCCSC(=N)N)c4ccccc34)C(=O)NC2=O)c2ccccc21 [EOS101001, BISINDOLYLMALEIMIDE IX]",–,109,48.9
"CC(C)(Cc1ccc2ccccc2c1)NC[C@@H](O)COc1cccc(Cl)c1C#N [EOS101044, NPS-2143]",–,47.6,27.2
"c1ccc2c(c1)[I+]c1ccccc1-2 [EOS101209, DIPHENYLENEIODONIUM]",–,2.02,3.09
"CC(C)C[C@H](NC(=O)[C@H](CCc1ccccc1)NC(=O)CN1CCOCC1)C(=O)N[C@@H](Cc1ccccc1)C(=O)N[C@@H](CC(C)C)C(=O)[C@@]1(C)CO1 [EOS101232, CARFILZOMIB]",–,31.4,–
"C[C@@H]1CCO[C@H]2Cn3cc(C(=O)NCc4ccc(F)cc4F)c(=O)c(O)c3C(=O)N12 [EOS101330, DOLUTEGRAVIR]",–,–,21.9
"CCc1nc(N)nc(N)c1-c1ccc(Cl)cc1 [EOS101458, PYRIMETHAMINE]",–,129,–
"COc1cc(NCc2ccc3nc(N)nc(N)c3c2C)cc(OC)c1OC [EOS101467, TRIMETREXATE]",–,1.99,24.1
"O=S(=O)(NCCNC/C=C/c1ccc(Br)cc1)c1cccc2cnccc12 [EOS101763, H-89 DIHYDROCHLORIDE]",–,65.9,–
"Oc1c(Cl)cc(Cl)cc1Sc1cc(Cl)cc(Cl)c1O [EOS101771, BITHIONOL]",–,42.9,14.6
"C/C(=N\N=C(N)N)c1cc(NC(=O)CCCCCCCCC(=O)Nc2cc(/C(C)=N/N=C(N)N)cc(/C(C)=N/N=C(N)N)c2)cc(/C(C)=N/N=C(N)N)c1 [EOS101827, SEMAPIMOD]",–,7.07,23.2
"[O-][n+]1ccccc1S [EOS101921, PYRITHIONE]",–,17.8,33.9
"CCN1/C(=C/c2ccc3ccccc3[n+]2CC)C=Cc2ccccc21 [EOS102018, DECYNIUM 22]",–,92.9,54.3
"CN(C)c1ccc(C(=C2C=CC(=[N+](C)C)C=C2)c2ccc(N(C)C)cc2)cc1 [EOS102093, GENTIAN VIOLET]",–,–,32.7
"c1ccc(-c2cccc(-c3ccccn3)n2)nc1 [EOS102213, TERPYRIDINE]",–,52.3,13.1
